≈ marks a conversion by molar mass, not a printed value. Like-named read-outs stand apart in the source and are kept apart here.
Tests used:
[1] = Saturated solubility (Cs) measured to establish sink conditions; type: physicochemical
Procedure: Prior to carrying out in vitro release studies, the saturated solubility of diltiazem HCI was measured in order to establish sink conditions.
Prior to carrying out in vitro release studies, the saturated solubility of diltiazem base was measured in order to establish sink conditions. […] The microsphere systems studied had diltiazem base starting loadings of 10% w/w, 20% w/w, 30% w/w, and 50% w/w, D 50% of […], respectively, and were prepared by Method A using the Ultra Turrax.

[2] = cited from earlier work

SMILES | solubility ([1]; aqueous buffer, thermodynamic from solid, phosphate buffer pH 7.4, read-out: Cs (saturated solubility)) [mg/mL] | solubility ([1]; pH 1.2, read-out: Cs (saturated solubility)) [mg/mL] | pKa [2] | solubility ([1]; pH 1.2, simulated gastric fluid, thermodynamic from solid) [mg/mL] | solubility ([1]; pH 7.4, aqueous buffer, thermodynamic from solid) [mg/mL]
COc1ccc([C@@H]2Sc3ccccc3N(CCN(C)C)C(=O)[C@@H]2OC(C)=O)cc1 [Diltiazem HCI] | 2.39 (≈ 5.77 mM) | > 1000 | – | – | –
COc1ccc([C@@H]2Sc3ccccc3N(CCN(C)C)C(=O)[C@@H]2OC(C)=O)cc1 [Diltiazem base] | – | – | around 8 | 227 (≈ 549 mM) | 1.06 (≈ 2.56 mM)
